PubChem BioAssay AID1437 (PCMD, 2008)
pIC50: −log10 of the molar value. Activity calls are given as the source filed them. The rule behind the calls is not given here.

Biological target: DNA repair protein RAD51 homolog 1 (Homo sapiens) (UniProt Q06609)
Test: concentration-dependent blocking of RAD51 activity – biochemical, homologous recombination, fluorescence, second set, dose response (AID 1437)
Settings: RAD51 homologous recombination biochemical assay

Sequence of DNA repair protein RAD51 homolog 1 (Homo sapiens) (Q06609 whole entry, looked up): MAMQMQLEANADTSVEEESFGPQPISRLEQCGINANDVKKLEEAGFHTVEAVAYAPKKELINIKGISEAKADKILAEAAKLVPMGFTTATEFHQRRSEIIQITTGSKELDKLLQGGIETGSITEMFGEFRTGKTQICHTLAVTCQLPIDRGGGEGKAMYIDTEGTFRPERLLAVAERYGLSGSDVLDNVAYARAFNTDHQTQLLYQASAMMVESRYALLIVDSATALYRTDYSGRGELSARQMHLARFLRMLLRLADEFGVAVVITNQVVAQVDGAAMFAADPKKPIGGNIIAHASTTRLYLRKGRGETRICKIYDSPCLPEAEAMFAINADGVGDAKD

pIC50 | IC50 | SMILES
4.60 |  | COC(=O)c1ccc(=O)c2nc3/c(=C/O)c(O)cc(=O)c3[nH]c12
 | > 53 µM (inactive) | Cc1cc(C)cc(N2C(=O)CC(Sc3nnnn3-c3ccccc3)C2=O)c1 (stereo not drawn)
 | > 53 µM (inactive) | Cc1ccc(C2/C(=C(\O)c3ccc4c(c3)OCCO4)C(=O)C(=O)N2CCCN(C)C)o1 (stereo not drawn)
